These results are taken from patent US6387893B1, “Spirotricyclic substituted azacycloalkane derivatives and uses thereof” (Merck & Co., Inc., priority 1999, dated 2002).

Molecules are shown by their SMILES. Where a name gives a salt, the structure may show the parent alone.

As usually defined, the melting point is the temperature, or range, at which the solid turns liquid. The Ki is a dissociation constant, usually derived from enzyme kinetics or from competition with a known ligand.

Data set [1] deals with T1, human alpha 1a adrenergic receptor (Homo sapiens, UniProt P35348).
T1 sequence (P35348 1-466): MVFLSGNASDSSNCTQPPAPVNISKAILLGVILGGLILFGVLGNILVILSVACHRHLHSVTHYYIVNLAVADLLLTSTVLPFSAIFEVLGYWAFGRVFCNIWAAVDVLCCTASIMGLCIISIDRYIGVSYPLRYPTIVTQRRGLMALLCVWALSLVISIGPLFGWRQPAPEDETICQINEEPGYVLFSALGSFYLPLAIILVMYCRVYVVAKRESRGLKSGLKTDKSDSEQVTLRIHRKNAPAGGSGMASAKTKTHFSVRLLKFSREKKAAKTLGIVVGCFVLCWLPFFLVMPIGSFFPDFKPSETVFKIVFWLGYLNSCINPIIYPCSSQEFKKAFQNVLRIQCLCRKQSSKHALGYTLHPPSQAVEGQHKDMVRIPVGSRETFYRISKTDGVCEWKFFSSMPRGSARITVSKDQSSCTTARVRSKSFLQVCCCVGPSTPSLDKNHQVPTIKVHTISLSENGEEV
The data set can be described thus: Screening assay: alpha 1a adrenergic receptor binding ([125I]-HEAT competition). To be noted: membranes from stably transfected human alpha 1a cell line (ATCC CRL 11140), 100 pM [125I]-HEAT. How it is done:
Screening Assay: Alpha 1a Adrenergic Receptor Binding
Membranes prepared from the stably transfected human alpha 1a cell line (ATCC CRL 11140) were used to identify compounds that bind to the human alpha 1a adrenergic receptor. These competition binding reactions (total volume=200 μl) contained 50 mM Tris-HCl pH. 7.4, 5 mM EDTA, 150 mM NaCl, 100 pM [^125I]-HEAT, membranes prepared from the alpha 1a cell line and increasing amounts of unlabeled ligand. Reactions were incubated at room temperature for one hour with shaking. Reactions were filtered onto Whatman GF/C glass fiber filters with a Inotec 96 well cell harvester. Filters were washed three times with ice cold buffer and bound radioactivity was determined (Ki).

Regarding `O=C1OCC(c2ccc(F)c(F)c2)N1CCCCN1CCC2(CC1)c1ccccc1Sc1ccccc12` (centres unmarked) (as salt: HCl), the melting point lay in the range of 97 to 132 °C.

In the case of `O=C(NCCCN1CCC2(CC1)c1ccccc1Sc1ccccc12)N1C(=O)OC[C@@H]1c1ccc(F)c(F)c1` (as salt: HCl), the melting point lay in the range of 140 to 176 °C.

`COCC1=C(C(=O)OC)C(c2ccc(F)c(F)c2)N(C(=O)NCCCN2CCC3(CC2)c2ccccc2Sc2ccccc23)C(=O)N1` (centres unmarked) (as salt: HCl) registered a melting point of 140 to 170 °C.

`O=C1OC[C@H](c2ccc(F)c(F)c2)N1CCCCCN1CCC2(CC1)c1ccccc1Sc1ccccc12` (as salt: HCl) [Example 19, 4-(S)-(3,4-Difluorophenyl)-3-[5-(spirothioxanthen-9,4′-piperidin-1′-yl)-pentyl]-oxazolidin-2-one] registered a melting point of 90 to 130 °C.

`O=C1OC[C@H](c2ccc(F)c(F)c2)N1CCCCCCN1CCC2(CC1)c1ccccc1Sc1ccccc12` (as salt: HCl) [Example 20, 4-(S)-(3,4-Difluorophenyl)-3-[6-(spirothioxanthen-9,4′-piperidin-1′-yl)-hexyl]-oxazolidin-2-one] displayed a melting point of 90 to 130 °C.

Compound `O=C(NCCCN1CCC2(CC1)c1ccccc1[S+]([O-])c1ccccc12)N1C(=O)OC[C@@H]1c1ccc(F)c(F)c1` (as salt: HCl) [Example 26, 1′-{3-[(4S)-(3,4-Difluorophenyl)-2-oxooxazolidin-3-carbonylamino]propyl}-(10-oxo-spirothioxanthene-9,4′-piperidine)] showed a melting point of 184 to 193 °C.

In the case of `COCC1=C(C(=O)OC)[C@H](c2ccc(F)c(F)c2)N(C(=O)NCCCN2CCC3(CC2)c2ccccc2[S+]([O-])c2ccccc23)C(=O)N1` (as salt: HCl) [Example 27, 1,2,3,6-tetrahydro-1-[(10-oxo-spirothioxanthene-9,4′-piperidin-1′-yl)propyl]aminocarbonyl-5-methoxycarbonyl-4-methoxymethyl-6(S)-(3,4-difluorophenyl)-2-oxopyrimidine], the melting point is 185 to 196 °C.

In turn, `O=C(NCCCN1CCC2(CC1)c1ccccc1S(=O)(=O)c1ccccc12)N1C(=O)OC[C@@H]1c1ccc(F)c(F)c1` (as salt: HCl) [Example 32, 1′-{3-[(4S)-(3,4-Difluorophenyl)-2-oxooxazolidin-3-carbonylamino]propyl}-(10,10-dioxo-spirothioxanthene-9,4′-piperidine)] registered a melting point of 158 to 187 °C.

`COCC1=C(C(=O)OC)[C@H](c2ccc(F)c(F)c2)N(C(=O)NCCCN2CCC3(CC2)c2ccccc2S(=O)(=O)c2ccccc23)C(=O)N1` (as salt: HCl) [Example 33, 1,2,3,6-tetrahydro-1-[(10,10-dioxo-spirothioxanthene-9,4′-piperidin-1′-yl)propyl]aminocarbonyl-5-methoxycarbonyl-4-methoxymethyl-6(S)-(3,4-difluorophenyl)-2-oxopyrimidine]: the melting point was 158 to 196 °C.

Take `COCC1=C(C(=O)OC)[C@H](c2ccc(F)c(F)c2)N(C(=O)NCCCN2CCC3(CC2)c2ccccc2-c2ncccc23)C(=O)N1` (as salt: hydrochloride) [Example 49]: the melting point was in the range of 157 to 180 °C.

In the case of `Cc1ccc(C2(c3ccc(C)cc3)NC(=O)N(CCCN3CCC4(CC3)c3ccccc3-c3ccccc34)C2=O)cc1` [Example 4, 1′-[3-(5,5-Bis-p-tolyl-2,4-dioxoimidazolidin-3-yl)propyl]spirofluorene-9,4′-piperidine], in data set [1], the Ki was less than 20 nM.

As for `O=C(NCCCN1CCC2(CC1)c1ccccc1-c1ccccc12)N1C(=O)OC[C@@H]1c1ccc(F)c(F)c1` [Example 6, 1′-{3-[(4S)-(3,4-Difluorophenyl)-2-oxooxazolidin-3-carbonylamino]propyl}spirofluorene-9,4′-piperidine], in data set [1], the inhibition constant (Ki) was less than 20 nM.

Consider `COCC1=C(C(=O)OC)[C@H](c2ccc(F)c(F)c2)N(C(=O)NCCCN2CCC3(CC2)c2ccccc2-c2ccccc23)C(=O)N1` [Example 8, 1,2,3,6-tetrahydro-1-[(spirofluorene-9,4′-piperidin-1′-yl)propyl]aminocarbonyl-5-methoxycarbonyl-4-methoxymethyl-6(S)-(3,4-difluorophenyl)-2-oxopyrimidine], for which the Ki in data set [1] is less than 20 nM.

In data set [1], `Cc1ccc(C2(c3ccc(C)cc3)NC(=O)N(CCCN3CCC4(CC3)c3ccccc3-c3ccc(Br)cc34)C2=O)cc1` [Example 10, 1′-[3-(5,5-Bis-p-tolyl-2,4-dioxoimidazolidin-3-yl)propyl]-2-bromospirofluorene-9,4′-piperidine] returned a Ki of less than 20 nM.

In turn, `COCC1=C(C(=O)OC)[C@H](c2ccc(F)c(F)c2)N(C(=O)NCCCN2CCC3(CC2)c2ccccc2-c2ccc(F)cc23)C(=O)N1` [Example 14, 1,2,3,6-tetrahydro-1-[((2-fluorospirofluorene-9,4′-piperidin)-1′-yl)propyl]aminocarbonyl-5-methoxycarbonyl-4-methoxymethyl-6(S)-(3,4-difluorophenyl)-2-oxopyrimidine] returned a Ki in data set [1] of less than 20 nM.

In data set [1], `O=C(NCCCN1CCC2(CC1)c1ccccc1[S+]([O-])c1ccccc12)N1C(=O)OC[C@@H]1c1ccc(F)c(F)c1` [Example 26, 1′-{3-[(4S)-(3,4-Difluorophenyl)-2-oxooxazolidin-3-carbonylamino]propyl}-(10-oxo-spirothioxanthene-9,4′-piperidine)] came in with an inhibitory constant (Ki) of less than 20 nM.

In turn, `COCC1=C(C(=O)OC)[C@H](c2ccc(F)c(F)c2)N(C(=O)NCCCN2CCC3(CC2)c2ccccc2[S+]([O-])c2ccccc23)C(=O)N1` [Example 27, 1,2,3,6-tetrahydro-1-[(10-oxo-spirothioxanthene-9,4′-piperidin-1′-yl)propyl]aminocarbonyl-5-methoxycarbonyl-4-methoxymethyl-6(S)-(3,4-difluorophenyl)-2-oxopyrimidine] showed a Ki in data set [1] of less than 20 nM.

As to `O=C(NCCCN1CCC2(CC1)c1ccccc1S(=O)(=O)c1ccccc12)N1C(=O)OC[C@@H]1c1ccc(F)c(F)c1` [Example 32, 1′-{3-[(4S)-(3,4-Difluorophenyl)-2-oxooxazolidin-3-carbonylamino]propyl}-(10,10-dioxo-spirothioxanthene-9,4′-piperidine)], in data set [1], the Ki was less than 20 nM.

In the case of `COCC1=C(C(=O)OC)[C@H](c2ccc(F)c(F)c2)N(C(=O)NCCCN2CCC3(CC2)c2ccccc2S(=O)(=O)c2ccccc23)C(=O)N1` [Example 33, 1,2,3,6-tetrahydro-1-[(10,10-dioxo-spirothioxanthene-9,4′-piperidin-1′-yl)propyl]aminocarbonyl-5-methoxycarbonyl-4-methoxymethyl-6(S)-(3,4-difluorophenyl)-2-oxopyrimidine], in data set [1], the inhibitory constant (Ki) is less than 20 nM.

With `O=C(NCCCN1CCC2(CC1)c1ccccc1Oc1ccc(Cl)cc12)N1C(=O)OC[C@@H]1c1ccc(F)c(F)c1` [Example 40, 1′-{3-[(4S)-(3,4-Difluorophenyl)-2-oxooxazolidin-3-carbonylamino]propyl}-2-chlorospiroxanthene-9,4′-piperidine], the Ki in data set [1] is less than 20 nM.

In data set [1], `O=C(NCCCN1CCC2(CC1)c1cc(Cl)ccc1Oc1ccc(Cl)cc12)N1C(=O)OC[C@@H]1c1ccc(F)c(F)c1` [Example 42, 1′-{3-[(4S)-(3,4-Difluorophenyl)-2-oxooxazolidin-3-carbonylamino]propyl}-2,7-dichlorospiroxanthene-9,4′-piperidine] returned a Ki of less than 20 nM.

In turn, `O=C(NCCCN1CCC2(CC1)c1cc(F)ccc1Oc1ccc(F)cc12)N1C(=O)OC[C@@H]1c1ccc(F)c(F)c1` [Example 44, 1′-{3-[(4S)-(3,4-Difluorophenyl)-2-oxooxazolidin-3-carbonylamino]propyl}-2,7-difluorospiroxanthene-9,4′-piperidine] returned a Ki in data set [1] of less than 20 nM.

As for `COCC1=C(C(=O)OC)[C@H](c2ccc(F)c(F)c2)N(C(=O)NCCCN2CCC3(CC2)c2ccccc2-c2ncccc23)C(=O)N1` [Example 49], in data set [1], the inhibitory constant (Ki) was less than 20 nM.

`COCC1=C(C(=O)OC)[C@H](c2ccc(F)c(F)c2)N(C(=O)NCCCN2CCC3(CC2)c2ccccc2-c2cccnc23)C(=O)N1` [Example 53, 1,2,3,6-tetrahydro-1-[3-((spiro(9H-indeno[2,1-b]pyridine)-9,4′-piperidin)-1′-yl)propylaminocarbonyl]-5-methoxycarbonyl-4-methoxymethyl-6(S)-(3,4-difluorophenyl)-2-oxopyrimidine]: the inhibition constant Ki in data set [1] is less than 20 nM.

Compound `O=C(NCCCN1CCC2(CC1)c1ccccc1CCc1ccccc12)N1C(=O)OC[C@@H]1c1ccc(F)c(F)c1` [Example 57, 1′-{3-[4(S)-(3,4-difluorophenyl)-2-oxooxazolidin-3-carbonylamino]-propyl}-(10,11-dihydrospiro-5H-dibenzo[a,d]cycloheptene)-5,4′-piperidine] had an inhibitory constant (Ki) in data set [1] of less than 20 nM.

For `O=C1OC[C@H](c2ccc(F)c(F)c2)N1CCCCCN1CCC2(CC1)c1ccccc1CCc1ccccc12` [Example 58, 1′-{5-[4(S)-(3,4-difluorophenyl)-2-oxooxazolidin-3-yl]-pentyl}-(10,11-dihydrospiro-5H-dibenzo[a,d]cycloheptene)-5,4′-piperidine], the Ki in data set [1] is less than 20 nM.
